Data reported in patent US11998539B2, “Substituted aminoquinolones as DGKalpha inhibitors for immune activation” (Bayer Aktiengesellschaft, priority 2019, dated 2024).

What follows are molecules tested against DGKα (Homo sapiens (Human), UniProt P23743) (assay: Human DGKα kinase activity inhibition assay (ADP-Glo)). Conditions: recombinant full-length human DGKα, 55 μM ATP, 7 μM 1,2-dioleoyl-sn-glycerol, read-out: IC50 values of examples in in vitro human DGKa kinase activity inhibition assays.
Chain of DGKα (P23743 other isoform, or with tags, fused parts or gaps): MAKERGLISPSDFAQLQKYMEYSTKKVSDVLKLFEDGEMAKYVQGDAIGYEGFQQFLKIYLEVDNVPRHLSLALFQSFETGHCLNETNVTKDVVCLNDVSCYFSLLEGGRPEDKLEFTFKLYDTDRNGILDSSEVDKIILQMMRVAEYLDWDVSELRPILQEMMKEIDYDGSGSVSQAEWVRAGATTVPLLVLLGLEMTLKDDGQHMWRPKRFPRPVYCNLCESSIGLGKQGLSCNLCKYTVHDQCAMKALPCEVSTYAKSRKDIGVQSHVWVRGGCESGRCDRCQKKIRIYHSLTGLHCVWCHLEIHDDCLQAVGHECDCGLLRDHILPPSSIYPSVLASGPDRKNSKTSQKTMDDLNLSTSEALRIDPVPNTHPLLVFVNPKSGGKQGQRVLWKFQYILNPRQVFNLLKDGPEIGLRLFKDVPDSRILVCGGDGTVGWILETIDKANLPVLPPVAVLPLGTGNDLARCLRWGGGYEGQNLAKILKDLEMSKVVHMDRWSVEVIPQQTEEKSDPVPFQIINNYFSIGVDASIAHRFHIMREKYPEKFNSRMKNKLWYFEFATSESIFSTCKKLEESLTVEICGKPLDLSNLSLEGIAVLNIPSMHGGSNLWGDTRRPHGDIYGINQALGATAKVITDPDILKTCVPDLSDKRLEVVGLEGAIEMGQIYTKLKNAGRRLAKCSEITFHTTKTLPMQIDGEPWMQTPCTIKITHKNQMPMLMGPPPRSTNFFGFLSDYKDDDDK
Type: biochemical
In short: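 Recombinant full-length human DGKα (C-terminal FLAG, from insect cells) phosphorylated 1,2-dioleoyl-sn-glycerol presented in octyl-glucopyranoside micelles. ADP formed was quantified by ADP-Glo luminescence. Compounds were added from 100-fold DMSO stocks.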

SMILES	IC50 [nM]
Cn1c(=O)c(C#N)c(N2CCC(c3nc4ccccc4o3)CC2)c2cc(Br)ccc21 [Example 168, 4-[4-(1,3-benzoxazol-2-yl)piperidin-1-yl]-6-bromo-1-methyl-2-oxo-1,2-dihydroquinoline-3-carbonitrile]	0.5
Cn1c(=O)c(C#N)c(N2CCC(c3nc4ccccc4s3)CC2)c2cc(Br)ccc21 [Example 169, 4-[4-(1,3-benzothiazol-2-yl)piperidin-1-yl]-6-bromo-1-methyl-2-oxo-1,2-dihydroquinoline-3-carbonitrile]	0.6
CC(C)c1ccc2oc(C3CCN(c4c(C#N)c(=O)n(C)c5ccc(Br)cc45)CC3)nc2c1 [Example 170, 6-bromo-1-methyl-2-oxo-4-{4-[5-(propan-2-yl)-1,3-benzoxazol-2-yl]piperidin-1-yl}-1,2-dihydroquinoline-3-carbonitrile]	7.2
Cc1ccc2oc(C3(C)CCN(c4c(C#N)c(=O)n(C)c5ccc(Br)cc45)CC3)nc2c1 [Example 171, 6-bromo-1-methyl-4-[4-methyl-4-(5-methyl-1,3-benzoxazol-2-yl)piperidin-1-yl]-2-oxo-1,2-dihydroquinoline-3-carbonitrile]	1.5
COc1ccc(C2CCN(c3c(C#N)c(=O)n(C)c4ccc(C#N)cc34)CC2)cc1 [Example 173, 4-[4-(4-methoxyphenyl)piperidin-1-yl]-1-methyl-2-oxo-1,2-dihydroquinoline-3,6-dicarbonitrile]	12
Cc1ccc2c(c1)c(N1CCC(c3nc4ccccc4s3)CC1)c(C#N)c(=O)n2C [Example 174, 4-[4-(1,3-benzothiazol-2-yl)piperidin-1-yl]-1,6-dimethyl-2-oxo-1,2-dihydroquinoline-3-carbonitrile]	1.7
Cn1c(=O)c(C#N)c(N2CCC(c3nc4ccccc4o3)CC2)c2cc(C#N)ccc21 [Example 175, 4-[4-(1,3-benzoxazol-2-yl)piperidin-1-yl]-1-methyl-2-oxo-1,2-dihydroquinoline-3,6-dicarbonitrile]	4.2
Cn1c(=O)c(C#N)c(N2CCC(c3nc4ccccc4s3)CC2)c2cc(C#N)ccc21 [Example 176, 4-[4-(1,3-benzothiazol-2-yl)piperidin-1-yl]-1-methyl-2-oxo-1,2-dihydroquinoline-3,6-dicarbonitrile]	3
COc1ccc(C2CCN(c3c(C#N)c(=O)n(C)c4ccc(S(C)(=O)=O)cc34)CC2)cc1 [Example 178, 6-(methanesulfonyl)-4-[4-(4-methoxyphenyl)piperidin-1-yl]-1-methyl-2-oxo-1,2-dihydroquinoline-3-carbonitrile]	298
COc1ccc(C2CCN(c3c(C#N)c(=O)n(C)c4ccc(C5=CCOCC5)cc34)CC2)cc1 [Example 180, 6-(3,6-dihydro-2H-pyran-4-yl)-4-[4-(4-methoxyphenyl)piperidin-1-yl]-1-methyl-2-oxo-1,2-dihydroquinoline-3-carbonitrile]	1510
COc1ccc(C2CCN(c3c(C#N)c(=O)n(C)c4ccc(-c5ccccc5)cc34)CC2)cc1 [Example 181, 4-[4-(4-methoxyphenyl)piperidin-1-yl]-1-methyl-2-oxo-6-phenyl-1,2-dihydroquinoline-3-carbonitrile]	150
Cc1ccc2oc(C3(C)CCN(c4c(C#N)c(=O)n(C)c5ccc(S(C)(=O)=O)cc45)CC3)nc2c1 [Example 182, 6-(methanesulfonyl)-1-methyl-4-[4-methyl-4-(5-methyl-1,3-benzoxazol-2-yl)piperidin-1-yl]-2-oxo-1,2-dihydroquinoline-3-carbonitrile]	47
Cc1ccc2c(c1)c(N1CCC(c3nc4ccc(Cl)cc4o3)CC1)c(C#N)c(=O)n2C [Example 183, 4-[4-(6-chloro-1,3-benzoxazol-2-yl)piperidin-1-yl]-1,6-dimethyl-2-oxo-1,2-dihydroquinoline-3-carbonitrile]	1.5
Cc1ccc2nc(C3CCN(c4c(C#N)c(=O)n(C)c5ccc(C)cc45)CC3)oc2c1 [Example 184, 1,6-dimethyl-4-[4-(6-methyl-1,3-benzoxazol-2-yl)piperidin-1-yl]-2-oxo-1,2-dihydroquinoline-3-carbonitrile]	1.5
Cc1ccc2c(c1)c(N1CCC(c3nc4cc(Cl)ccc4o3)CC1)c(C#N)c(=O)n2C [Example 185, 4-[4-(5-chloro-1,3-benzoxazol-2-yl)piperidin-1-yl]-1,6-dimethyl-2-oxo-1,2-dihydroquinoline-3-carbonitrile]	2.9
Cc1ccc2c(c1)c(N1CCC(c3nc4cc(C(C)C)ccc4o3)CC1)c(C#N)c(=O)n2C [Example 186, 1,6-dimethyl-2-oxo-4-{4-[5-(propan-2-yl)-1,3-benzoxazol-2-yl]piperidin-1-yl}-1,2-dihydroquinoline-3-carbonitrile]	9.1
Cc1ccc2oc(C3(C)CCN(c4c(C#N)c(=O)n(C)c5ccc(C)cc45)CC3)nc2c1 [Example 187, 1,6-dimethyl-4-[4-methyl-4-(5-methyl-1,3-benzoxazol-2-yl)piperidin-1-yl]-2-oxo-1,2-dihydroquinoline-3-carbonitrile]	2

SMILES	IC50 [nM]
Cc1ccc2nc(C3(C)CCN(c4c(C#N)c(=O)n(C)c5ccc(C)cc45)CC3)oc2c1 [Example 188, 1,6-dimethyl-4-[4-methyl-4-(6-methyl-1,3-benzoxazol-2-yl)piperidin-1-yl]-2-oxo-1,2-dihydroquinoline-3-carbonitrile]	2.6
Cc1ccc2c(c1)c(N1CCC(C)(c3nc4cc(C(C)C)ccc4o3)CC1)c(C#N)c(=O)n2C [Example 189, 1,6-dimethyl-4-{4-methyl-4-[5-(propan-2-yl)-1,3-benzoxazol-2-yl]piperidin-1-yl}-2-oxo-1,2-dihydroquinoline-3-carbonitrile]	15
COc1ccc2c(c1)c(N1CCC(c3nc4ccc(C)cc4o3)CC1)c(C#N)c(=O)n2C [Example 190, 6-methoxy-1-methyl-4-[4-(6-methyl-1,3-benzoxazol-2-yl)piperidin-1-yl]-2-oxo-1,2-dihydroquinoline-3-carbonitrile]	5.7
COc1ccc2c(c1)c(N1CCC(C)(c3nc4ccc(C)cc4o3)CC1)c(C#N)c(=O)n2C [Example 191, 6-methoxy-1-methyl-4-[4-methyl-4-(6-methyl-1,3-benzoxazol-2-yl)piperidin-1-yl]-2-oxo-1,2-dihydroquinoline-3-carbonitrile]	7
Cc1ccc2nc(C3(C)CCN(c4c(C#N)c(=O)n(C)c5ccc(Cl)cc45)CC3)oc2c1 [Example 192, 6-chloro-1-methyl-4-[4-methyl-4-(6-methyl-1,3-benzoxazol-2-yl)piperidin-1-yl]-2-oxo-1,2-dihydroquinoline-3-carbonitrile]	1360
Cc1ccc2c(c1)c(N1CCC(c3nc4ccccc4o3)CC1)c(C(N)=O)c(=O)n2C [Example 193, 4-[4-(1,3-benzoxazol-2-yl)piperidin-1-yl]-1,6-dimethyl-2-oxo-1,2-dihydroquinoline-3-carboxamide]	2.4
Cc1ccc2oc(C3CCN(c4c(C(N)=O)c(=O)n(C)c5ccc(C)cc45)CC3)nc2c1 [Example 194, 1,6-dimethyl-4-[4-(5-methyl-1,3-benzoxazol-2-yl)piperidin-1-yl]-2-oxo-1,2-dihydroquinoline-3-carboxamide]	2.2
Cc1ccc2c(c1)c(N1CCC(C)(c3nc4ccccc4o3)CC1)c(C(N)=O)c(=O)n2C [Example 195, 4-[4-(1,3-benzoxazol-2-yl)-4-methylpiperidin-1-yl]-1,6-dimethyl-2-oxo-1,2-dihydroquinoline-3-carboxamide]	1.5
Cc1ccc2nc(C3CCN(c4c(C(N)=O)c(=O)n(C)c5ccc(C)cc45)CC3)oc2c1 [Example 196, 1,6-dimethyl-4-[4-(6-methyl-1,3-benzoxazol-2-yl)piperidin-1-yl]-2-oxo-1,2-dihydroquinoline-3-carboxamide]	3.1
Cc1ccc2nc(C3(C)CCN(c4c(C(N)=O)c(=O)n(C)c5ccc(C)cc45)CC3)oc2c1 [Example 197, 1,6-dimethyl-4-[4-methyl-4-(6-methyl-1,3-benzoxazol-2-yl)piperidin-1-yl]-2-oxo-1,2-dihydroquinoline-3-carboxamide]	2.2
Cc1ccc2oc(C3(C)CCN(c4c(C(N)=O)c(=O)n(C)c5ccc(C)cc45)CC3)nc2c1 [Example 198, 1,6-dimethyl-4-[4-methyl-4-(5-methyl-1,3-benzoxazol-2-yl)piperidin-1-yl]-2-oxo-1,2-dihydroquinoline-3-carboxamide]	2.1
Cc1ccc2c(c1)c(N1CCC(C)(c3nc4cc(C(C)C)ccc4o3)CC1)c(C(N)=O)c(=O)n2C [Example 199, 1,6-dimethyl-4-{4-methyl-4-[5-(propan-2-yl)-1,3-benzoxazol-2-yl]piperidin-1-yl}-2-oxo-1,2-dihydroquinoline-3-carboxamide]	3.4
Cc1ccc2c(c1)c(N1CCC(c3nc4cc(C(C)C)ccc4o3)CC1)c(C(N)=O)c(=O)n2C [Example 200, 1,6-dimethyl-2-oxo-4-{4-[5-(propan-2-yl)-1,3-benzoxazol-2-yl]piperidin-1-yl}-1,2-dihydroquinoline-3-carboxamide]	3.9
Cc1ccc2c(c1)c(N1CCC(c3nc4cc(Cl)ccc4o3)CC1)c(C(N)=O)c(=O)n2C [Example 201, 4-[4-(5-chloro-1,3-benzoxazol-2-yl)piperidin-1-yl]-1,6-dimethyl-2-oxo-1,2-dihydroquinoline-3-carboxamide]	1.1
Cc1ccc2c(c1)c(N1CCC(c3nc4ccc(Cl)cc4o3)CC1)c(C(N)=O)c(=O)n2C [Example 202, 4-[4-(6-chloro-1,3-benzoxazol-2-yl)piperidin-1-yl]-1,6-dimethyl-2-oxo-1,2-dihydroquinoline-3-carboxamide]	2.7
Cc1ccc2oc(C3(C)CCN(c4c(C(N)=O)c(=O)n(C)c5ccc(Br)cc45)CC3)nc2c1 [Example 203, 6-bromo-1-methyl-4-[4-methyl-4-(5-methyl-1,3-benzoxazol-2-yl)piperidin-1-yl]-2-oxo-1,2-dihydroquinoline-3-carboxamide]	0.9
